In patent US8173638B2 (Boehringer Ingelheim International GmbH, priority 2006, dated 2012) one finds agonistic activity data, which are given here for 36 molecules.

In the assay the target is T1, human CB2R (Homo sapiens, UniProt P34972).
T1 construct: host or cells: CHO cells
T1 sequence (P34972 whole entry): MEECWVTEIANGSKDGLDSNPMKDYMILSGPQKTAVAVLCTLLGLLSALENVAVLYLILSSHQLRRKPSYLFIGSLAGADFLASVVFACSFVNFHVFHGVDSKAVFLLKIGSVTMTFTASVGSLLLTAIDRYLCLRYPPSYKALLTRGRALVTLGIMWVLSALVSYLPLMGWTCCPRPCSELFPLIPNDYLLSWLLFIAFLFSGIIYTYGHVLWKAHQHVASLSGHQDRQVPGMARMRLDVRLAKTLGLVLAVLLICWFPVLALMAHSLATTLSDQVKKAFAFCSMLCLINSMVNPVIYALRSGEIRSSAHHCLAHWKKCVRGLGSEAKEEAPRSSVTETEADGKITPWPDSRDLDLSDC
The assay can be described thus: CB2R mediated modulation of cAMP synthesis. Type of assay: cell-based. The conditions noted are these: found through the use of the described assays (CB2 agonists); qualitative statement. How it is done: B. CB2R Mediated Modulation of cAMP Synthesis:
CHO cells expressing human CB2R (Euroscreen) were plated at a density of 5000 cells per well in 384 well plates and incubated overnight at 37° C. After removing the media, the cells were treated with test compounds diluted in stimulation buffer containing 1 mM IBMX, 0.25% BSA and 10 uM Forskolin. The assay was incubated for 30 minutes at 37° C. Cells were lysed and the cAMP concentration was measured using DiscoverX-XS cAMP kit, following the manufacturer's protocol. In this setting, agonists will decrease forskolin induced production of cAMP while inverse agonists will further increase forskolin induced production of cAMP. EC50 of agonists were calculated as follows. The maximal amount of cAMP produced by forskolin compared to the level of cAMP inhibited by 1 uM CP55940 is defined as 100%. […] Data was analyzed using a four-parameter logistic model. (Model 205 of XLfit 4.0).
As for `CC(C)(C)c1cc(NC(=O)N2CCCN(C(=O)CN3CCSCC3)CC2)no1` [4-(2-Thiomorpholin-4-yl-acetyl)-[1,4]diazepane-1-carboxylic acid (5-tert-butyl-isoxazol-3-yl)-amide], the agonistic activity entry is given as “agonistic activity”. On to `O=C(CC1CCCC1)N1CCCN(C(=O)Nc2ccc(SC(F)(F)F)cc2)CC1` [4-(2-cyclopentyl-acetyl)-[1,4]diazepane-1-carboxylic acid (4-trifluoromethylsulfanyl-phenyl)-amide], for which the agonistic activity entry is reported as “agonistic activity”. For the molecule `CC(C)c1ccc(NC(=O)N2CCCN(C(=O)CC(C)(C)C)CC2)cc1` [4-(3,3-Dimethyl-butyryl)-[1,4]diazepane-1-carboxylic acid (4-isopropyl-phenyl)-amide], the agonistic activity result is on record as “agonistic activity”. As to `CC(C)(C)CC(=O)N1CCCN(C(=O)Nc2ccc(C(C)(C)C)cc2)CC1` [4-(3,3-Dimethyl-butyryl)-[1,4]diazepane-1-carboxylic acid (4-tert-butyl-phenyl)-amide], the agonistic activity result is recorded as “agonistic activity”. `CC(C)(C)CC(=O)N1CCCN(C(=O)Nc2ccc3ccccc3c2)CC1` [4-(3,3-Dimethyl-butyryl)-[1,4]diazepane-1-carboxylic acid naphthalen-2-ylamide]: the agonistic activity entry is on record as “agonistic activity”. For the molecule `CC(C)(C)c1ccc(NC(=O)N2CCCN(C(=O)c3ccc(Cl)c(Cl)c3)CC2)cc1` [4-(3,4-Dichloro-benzoyl)-[1,4]diazepane-1-carboxylic acid (4-tert-butyl-phenyl)-amide], the agonistic activity entry is given as “agonistic activity”.

Regarding `O=C(Nc1ccc2ccccc2c1)N1CCCN(C(=O)c2ccc(Cl)c(Cl)c2)CC1` [4-(3,4-Dichloro-benzoyl)-[1,4]diazepane-1-carboxylic acid naphthalen-2-ylamide], the agonistic activity entry is recorded as “agonistic activity”. As to `CC(C)(C)c1ccc(NC(=O)N2CCCN(C(=O)c3cc(Cl)cc(Cl)c3)CC2)cc1` [4-(3,5-Dichloro-benzoyl)-[1,4]diazepane-1-carboxylic acid (4-tert-butyl-phenyl)-amide], the agonistic activity entry is “agonistic activity”. Take `CC(C)c1ccc(NC(=O)N2CCCN(C(=O)c3cccc(Cl)c3)CC2)cc1` [4-(3-Chloro-benzoyl)-[1,4]diazepane-1-carboxylic acid (4-isopropyl-phenyl)-amide]: the agonistic activity entry is on record as “agonistic activity”. For the molecule `CCCCc1ccc(NC(=O)N2CCCN(C(=O)CCC3CCCCC3)CC2)cc1` [4-(3-Cyclohexyl-propionyl)-[1,4]diazepane-1-carboxylic acid (4-butyl-phenyl)-amide], the agonistic activity result is recorded as “agonistic activity”. In the case of `CC(C)c1ccc(NC(=O)N2CCCN(C(=O)CCC3CCCCC3)CC2)cc1` [4-(3-Cyclohexyl-propionyl)-[1,4]diazepane-1-carboxylic acid (4-isopropyl-phenyl)-amide], the agonistic activity result was “agonistic activity”. With `CC(C)(C)c1ccc(NC(=O)N2CCCN(C(=O)CCC3CCCCC3)CC2)cc1` [4-(3-Cyclohexyl-propionyl)-[1,4]diazepane-1-carboxylic acid (4-tert-butyl-phenyl)-amide], the agonistic activity result is “agonistic activity”. Turning to `O=C(CCC1CCCCC1)N1CCCN(C(=O)Nc2ccc3ccccc3c2)CC1` [4-(3-Cyclohexyl-propionyl)-[1,4]diazepane-1-carboxylic acid naphthalen-2-ylamide], the agonistic activity entry is listed as “agonistic activity”. Take `N#Cc1ccc(NC(=O)N2CCCN(C(=O)CCC3CCCC3)CC2)cc1` [4-(3-Cyclopentyl-propionyl)-[1,4]diazepane-1-carboxylic acid (4-cyano-phenyl)-amide]: the agonistic activity entry is “agonistic activity”.

For `CN(C)c1ccc(NC(=O)N2CCCN(C(=O)CCC3CCCC3)CC2)cc1` [4-(3-Cyclopentyl-propionyl)-[1,4]diazepane-1-carboxylic acid (4-dimethylamino-phenyl)-amide], the agonistic activity result was “agonistic activity”. Then `CCc1ccc(NC(=O)N2CCCN(C(=O)CCC3CCCC3)CC2)cc1` [4-(3-Cyclopentyl-propionyl)-[1,4]diazepane-1-carboxylic acid (4-ethyl-phenyl)-amide], with “agonistic activity”; and `CS(=O)(=O)c1ccc(NC(=O)N2CCCN(C(=O)CCC3CCCC3)CC2)cc1` [4-(3-Cyclopentyl-propionyl)-[1,4]diazepane-1-carboxylic acid (4-methanesulfonyl-phenyl)-amide], with “agonistic activity”. Turning to `CSc1ccc(NC(=O)N2CCCN(C(=O)CCC3CCCC3)CC2)cc1` [4-(3-Cyclopentyl-propionyl)-[1,4]diazepane-1-carboxylic acid (4-methylsulfanyl-phenyl)-amide], the agonistic activity result is recorded as “agonistic activity”.

Turning to `CCCCCc1ccc(NC(=O)N2CCCN(C(=O)CCC3CCCC3)CC2)cc1` [4-(3-Cyclopentyl-propionyl)-[1,4]diazepane-1-carboxylic acid (4-pentyl-phenyl)-amide], the agonistic activity result is “agonistic activity”.

For the molecule `CCCc1ccc(NC(=O)N2CCCN(C(=O)CCC3CCCC3)CC2)cc1` [4-(3-Cyclopentyl-propionyl)-[1,4]diazepane-1-carboxylic acid (4-propyl-phenyl)-amide], the agonistic activity entry is listed as “agonistic activity”.

Turning to `O=C(CCC1CCCC1)N1CCCN(C(=O)Nc2ccc(C(F)(F)F)cc2)CC1` [4-(3-Cyclopentyl-propionyl)-[1,4]diazepane-1-carboxylic acid (4-trifluoromethyl-phenyl)-amide], the agonistic activity result is “agonistic activity”. With `O=C(CCC1CCCC1)N1CCCN(C(=O)NC2CCCCC2)CC1` [4-(3-Cyclopentyl-propionyl)-[1,4]diazepane-1-carboxylic acid cyclohexylamide], the agonistic activity result is recorded as “agonistic activity”. The entry for `O=C(CCC1CCCC1)N1CCCN(C(=O)NCC2CCCCC2)CC1` [4-(3-Cyclopentyl-propionyl)-[1,4]diazepane-1-carboxylic acid cyclohexylmethyl-amide] is “agonistic activity”; for `Cc1cccc(NC(=O)N2CCCN(C(=O)CCC3CCCC3)CC2)c1` [4-(3-Cyclopentyl-propionyl)-[1,4]diazepane-1-carboxylic acid m-tolylamide] it is “agonistic activity”. On to `O=C(CCC1CCCC1)N1CCCN(C(=O)Nc2cccc3ccccc23)CC1` [4-(3-Cyclopentyl-propionyl)-[1,4]diazepane-1-carboxylic acid naphthalen-1-ylamide], for which the agonistic activity entry is given as “agonistic activity”. For the molecule `O=C(CCC1CCCC1)N1CCCN(C(=O)Nc2ccc3ccccc3c2)CC1` [4-(3-Cyclopentyl-propionyl)-[1,4]diazepane-1-carboxylic acid naphthalen-2-ylamide], the agonistic activity result is listed as “agonistic activity”.

Consider `CCCCc1ccc(NC(=O)N2CCCN(C(=O)CCC3CC3)CC2)cc1` [4-(3-Cyclopropyl-propionyl)-[1,4]diazepane-1-carboxylic acid (4-butyl-phenyl)-amide], for which the agonistic activity entry was “agonistic activity”. Regarding `CC(C)c1ccc(NC(=O)N2CCCN(C(=O)CCC3CC3)CC2)cc1` [4-(3-Cyclopropyl-propionyl)-[1,4]diazepane-1-carboxylic acid (4-isopropyl-phenyl)-amide], the agonistic activity entry was “agonistic activity”. With `CC(C)(C)c1ccc(NC(=O)N2CCCN(C(=O)CCC3CC3)CC2)cc1` [4-(3-Cyclopropyl-propionyl)-[1,4]diazepane-1-carboxylic acid (4-tert-butyl-phenyl)-amide], the agonistic activity result was “agonistic activity”. Consider `O=C(CCC1CC1)N1CCCN(C(=O)Nc2ccc3ccccc3c2)CC1` [4-(3-Cyclopropyl-propionyl)-[1,4]diazepane-1-carboxylic acid naphthalen-2-ylamide], for which the agonistic activity entry was “agonistic activity”. As to `CC(C)CC(=O)N1CCCN(C(=O)Nc2cc(C(C)(C)C)on2)CC1` [4-(3-Methyl-butyryl)-[1,4]diazepane-1-carboxylic acid (5-tert-butyl-isoxazol-3-yl)-amide], the agonistic activity entry is on record as “agonistic activity”. As to `CC(C)c1ccc(NC(=O)N2CCCN(C(=O)CCC(F)(F)F)CC2)cc1` [4-(4,4,4-Trifluoro-butyryl)-[1,4]diazepane-1-carboxylic acid (4-isopropyl-phenyl)-amide], the agonistic activity entry is recorded as “agonistic activity”.

As for `CC(C)(C)c1ccc(NC(=O)N2CCCN(C(=O)CCC(F)(F)F)CC2)cc1` [4-(4,4,4-Trifluoro-butyryl)-[1,4]diazepane-1-carboxylic acid (4-tert-butyl-phenyl)-amide], the agonistic activity result was “agonistic activity”. `O=C(CCC(F)(F)F)N1CCCN(C(=O)Nc2ccc3ccccc3c2)CC1` [4-(4,4,4-Trifluoro-butyryl)-[1,4]diazepane-1-carboxylic acid naphthalen-2-ylamide]: the agonistic activity result was “agonistic activity”.

As to `CC(C)(C)c1cc(NC(=O)N2CCCN(C(=O)C3CCC(F)(F)CC3)CC2)on1` [4-(4,4-Difluoro-cyclohexanecarbonyl)-[1,4]diazepane-1-carboxylic acid (3-tert-butyl-isoxazol-5-yl)-amide], the agonistic activity entry is given as “agonistic activity”. Take `O=C(Nc1ccc(C(F)(F)F)cc1)N1CCCN(C(=O)C2CCC(F)(F)CC2)CC1` [4-(4,4-Difluoro-cyclohexanecarbonyl)-[1,4]diazepane-1-carboxylic acid (4-trifluoromethyl-phenyl)-amide]: the agonistic activity entry is listed as “agonistic activity”.
